Counter-ions that a name gives are not always drawn.
Assays:
[1] = tested on: dopamine (DA) neurons in substantia nigra pars compacta; details: MPTP model, daily injections; cited from earlier work
[2] = Cell cytotoxicity test: HT22 cells co-treated with 5 mM glutamate and compound, MTT readout; type: cell-based, mouse; details: mouse, HT22 cells (mouse hippocampal neuron)
Method: (§1) HT22 cells (mouse hippocampal neuron, Salk Institute and KRIBB) were placed in a 96-well plate 3×10^3 cells/well for 16 h before treatment. Five millimolar glutamate and the inventive compounds were co-treated and incubated for 24 h in growth media (DMEM with 10% FBS and 1% penicillin streptomycin). MTT (3-(4,5-dimethylthazol-2-yl)-2,5-diphenyltetrazolium bromide, Sigma®) was treated for 4 h and detected with a plate reader at a wavelength=450 nm [Da-Qing, et. al., Anti-oxidant and anti-inflammatory activities of macelignan in murine hippocampal cell line and primary culture of rat microglia cells, BBRC, 2005, 331, 1264-1269].
(§2) The EC50 values were statistically analyzed using Prism® (GraphPad Software Inc., San Diego, Calif.). The results of the cell cytotoxicity test are summarized in Table 1 (EC50: neuroprotective effect against glutamate toxicity, and CC50: cytotoxicity of compound).

[3] = tested on: HT22 cells (mouse hippocampal neuron); test: as above; type: cell-based; details: Mus musculus, HT-22, five millimolar glutamate co-treated, 24 h, read-out: EC50: neuroprotective effect against glutamate toxicity
Method: as §1, §2

Oc1ccc2c(c1)[C@@]13CCCC[C@H]1[C@@H](C2)NCC3 [(+)-3-HM, (+)-3-hydroxymorphinan]
DA levels in striatum [1]: restored | DA neurons in substantia nigra pars compacta [1]: protected

Oc1cc2c(c3c1OCCN3)C[C@@H]1NCC[C@]23CCCC[C@H]13 [Example 1, (6S,6aS,10aS)-2,3,4,5,6,6a,7,8,9,10-Decahydro-6,10a-(epiminoethano)phenanthro[2,1-b][1,4]oxazin-12-ol TFA salt]
CC50 at 24 h [2]: > 100 µM | EC50 [3]: 26.9 µM

Oc1cc2c(c3c1OCCCN3)C[C@@H]1NCC[C@]23CCCC[C@H]13 [Example 2, (7S,7aS,11aS)-3,4,5,6,7,7a,8,9,10,11-Decahydro-2H-7,11a-(epiminoethano)phenanthro[2,1-b][1,4]oxazepin-13-ol TFA salt]
CC50 at 24 h [2]: > 100 µM | EC50 [3]: 27.7 µM

CC(=O)N1CCOc2c(O)cc3c(c21)C[C@@H]1NCC[C@]32CCCC[C@H]12 [Example 3, 1-((6S,6aS,10aS)-12-Hydroxy-2,3,6,6a,7,8,9,10-octahydro-6,10a-(epiminoethano)phenanthro[2,1-b][1,4]oxazin-4(5H)-yl)ethanone TFA salt]
CC50 at 24 h [2]: > 100 µM | EC50 [3]: 8.5 µM

CN1CCOc2c(O)cc3c(c21)C[C@@H]1NCC[C@]32CCCC[C@H]12 [Example 4, (6S,6aS,10aS)-4-Methyl-2,3,4,5,6,6a,7,8,9,10-decahydro-6,10a-(epiminoethano)phenanthro[2,1-b][1,4]oxazin-12-ol TFA salt]
CC50 at 24 h [2]: > 100 µM | EC50 [3]: 9.6 µM

Oc1cc2c(c3c1OCCO3)C[C@@H]1NCC[C@]23CCCC[C@H]13 [Example 5, (6S,6aS,10aS)-3,5,6,6a,7,8,9,10-Octahydro-2H-6,10a-(epiminoethano)phenanthro[1,2-b][1,4]dioxin-12-ol TFA salt]
CC50 at 24 h [2]: > 100 µM | EC50 [3]: 4.97 µM

CC1COc2c3c(cc(O)c2N1)[C@]12CCCC[C@@H]1[C@H](C3)NCC2 (stereo partly drawn) [Example 6, (6S,6aS,10aS)-2-Methyl-1,2,3,5,6,6a,7,8,9,10-decahydro-6,10a-(epiminoethano)phenanthro[1,2-b][1,4]oxazin-12-ol TFA salt]
CC50 at 24 h [2]: > 100 µM | EC50 [3]: 0.314 µM

Oc1cc2c(c3c1NCCO3)C[C@@H]1NCC[C@]23CCCC[C@H]13 [Example 7, (6S,6aS,10aS)-1,2,3,5,6,6a,7,8,9,10-Decahydro-6,10a-(epiminoethano)phenanthro[1,2-b][1,4]oxazin-12-ol TFA salt]
CC50 at 24 h [2]: 13.5 µM | EC50 [3]: 0.65 µM

Oc1cc2c(c3c1NC(c1ccccc1)CO3)C[C@@H]1NCC[C@]23CCCC[C@H]13 (stereo partly drawn) [Example 8, (6S,6aS,10aS)-2-Phenyl-1,2,3,5,6,6a,7,8,9,10-decahydro-6,10a-(epiminoethano)phenanthro[1,2-b][1,4]oxazin-12-ol TFA salt]
CC50 at 24 h [2]: 8.1 µM | EC50 [3]: 0.457 µM

Oc1cc2c(c3nccnc13)C[C@@H]1NCC[C@]23CCCC[C@H]13 [Example 9, (6S,6aS,10aS)-6,6a,7,8,9,10-Hexahydro-5H-6,10a-(epiminoethano)naphtho[2,1-f]quinoxalin-12-ol TFA salt]
CC50 at 24 h [2]: 44.8 µM | EC50 [3]: 16.3 µM

Oc1cc2c(c3nc4ccccc4nc13)C[C@@H]1NCC[C@]23CCCC[C@H]13 [Example 10, (4aS,14S,14aS)-2,3,4,13,14,14a-Hexahydro-1H-14,4a-(epiminoethano)naphtho[2,1-a]phenazin-6-ol TFA salt]
CC50 at 24 h [2]: 10.7 µM | EC50 [3]: 0.354 µM

Oc1cccc2c1[nH]c1c(O)cc3c(c12)C[C@@H]1NCC[C@]32CCCC[C@H]12 [Example 11, (4aS,13S,13aS)-1,2,3,4,7,12,13,13a-Octahydro-13,4a-(epiminoethano)naphtho[1,2-c]carbazole-6,8-diol TFA salt]
CC50 at 24 h [2]: 44 µM | EC50 [3]: 0.303 µM

Oc1cc2c(c3c1[nH]c1ccccc13)C[C@@H]1NCC[C@]23CCCC[C@H]13 [Example 12, (4aS,13S,13aS)-1,2,3,4,7,12,13,13a-Octahydro-13,4a-(epiminoethano)naphtho[1,2-c]carbazol-6-ol TFA salt]
CC50 at 24 h [2]: 49.8 µM | EC50 [3]: 0.71 µM

Oc1ccc2[nH]c3c(O)cc4c(c3c2c1)C[C@@H]1NCC[C@]42CCCC[C@H]12 [Example 13, (4aS,13S,13aS)-1,2,3,4,7,12,13,13a-Octahydro-13,4a-(epiminoethano)naphtho[1,2-c]carbazole-6,10-diol TFA salt]
CC50 at 24 h [2]: > 100 µM | EC50 [3]: 1.11 µM

Cc1ccc2[nH]c3c(O)cc4c(c3c2c1)C[C@@H]1NCC[C@]42CCCC[C@H]12 [Example 14, (4aS,13S,13aS)-10-Methyl-1,2,3,4,7,12,13,13a-octahydro-13,4a-(epiminoethano)naphtho[1,2-c]carbazol-6-ol TFA salt]
CC50 at 24 h [2]: 5.7 µM | EC50 [3]: 0.908 µM
